Results published in ChEMBL document CHEMBL3046866, “Microwave-assisted synthesis and evaluation of anti-inflammatory activity of new series of N-substituted 2-butyl-5-chloro-3H-imidazole-4-carbaldehyde derivatives” (2009).

Each molecule was assayed on Rattus norvegicus (assay: Anti-inflammatory activity in Rattus norvegicus albino (rat) assessed as inhibition of carrageenan-induced paw edema at 100 mg/kg, po administered 1 to 3 hr prior challenge).
Assay type: functional
Work on `CCCCc1nc(Cl)c(C=O)n1Cc1cc2c(cc1C)OCO2` yielded an inhibition in vivo at 100 mg/kg of 26%. Work on `CCCCc1nc(Cl)c(C=O)n1CC(=O)c1ccc(Cl)cc1` yielded an inhibition in vivo at 100 mg/kg of 28%. In the case of `CC(C)Cc1ccc(C(C)C(=O)O)cc1` (centres undefined) [IBUPROFEN], the inhibition in vivo at 100 mg/kg is reported as 49%. With `CCCCc1nc(Cl)c(C=O)n1CC(=O)c1ccccc1` the inhibition in vivo at 100 mg/kg was 26%.
